Measurements from US20260198493A1, “HYDRAZIDE COMPOUND AND AGRICULTURAL/HORTICULTURAL FUNGICIDE” (Nippon Soda Co., Ltd., priority 2022, published 2026).

What was measured:
Botrytis cinerea [1] = type: cell-based; details: 120 h, 25 ppm by volume, Vogel medium, 20° C., five days, dark, read-out: growth inhibition ratio
Venturia inaequalis = assay: Control test of apple scab disease (sprayed young apple seedlings); type: in vivo; details: 125 ppm by mass spray, 12 to 14 days after inoculation
Description: [formula] […] Then, the drug liquid was sprayed onto young apple seedlings cultivated in a nursery pot (variety “Orin”, three-to four-leaf stage), and then air-dried. Thereafter, conidiospores of fungi causing apple scab disease (Venturia inaequalis) were inoculated thereon (treated area). As a control, the conidiospores were inoculated in a similar manner to the above on young apple seedlings unsprayed with the drug liquid (untreated area). They were left still at 20° C. in a moist room with light and dark cycles repeated every 12 hours. 12 Days to 14 days after inoculation, leaves of young apple seedlings were visually observed, and the control value was calculated from the lesion area ratio in accordance with the equation used in the control test of cucumber gray mold.

Glomerella cingulata = assay: Fungicidal effect test against fungi causing grape ripe rot disease; details: Colletotrichum gloeosporioides, 72 h, read-out: growth inhibition ratio
Colletotrichum acutatum = assay: Fungicidal effect test against fungi causing apple anthracnose; details: 96 h, read-out: growth inhibition ratio
[2] = tested on: Erysiphe graminis f.sp.tritici; assay: Control test of wheat powdery mildew disease (sprayed young wheat seedlings); type: in vivo; details: Blumeria graminis, 144 h, 125 ppm by mass spray, six days after inoculation
Source text: [formula] […] Then, the drug liquid was sprayed onto young wheat seedlings cultivated in a nursery pot (variety “Chihoku”, one-to two-leaf stage), and then air-dried. Thereafter, conidiospores of fungi causing wheat powdery mildew disease (Erysiphe graminis f.sp.tritici) were sprinkled on the young wheat seedlings to inoculate them (treated area). As a control, the conidiospores of fungi causing wheat powdery mildew disease (Erysiphe graminis f.sp.tritici) were sprinkled on young wheat seedlings unsprayed with the drug liquid (untreated area). They were left still in a greenhouse at 20° C. Six days after inoculation, leaves of young wheat seedlings were visually observed, and the lesion area ratio was determined to calculate the control value in a similar manner to the previous test.

Botrytis cinerea [3] = assay: Control test of cucumber gray mold (sprayed young cucumber seedlings); type: in vivo; details: 96 h, four days after inoculation; for pest or weed control at 125 ppm: 125 ppm by mass spray; for pest or weed control at 25 ppm: 25 ppm by mass spray
Description: Then, the drug liquid was sprayed onto young cucumber seedlings cultivated in a nursery pot (variety “Jihai”-based, cotyledon stage), and then air-dried. […] They were left still in a moist room at 20° C. Four days after inoculation, leaves of the young cucumber seedlings were visually observed, and the control value was calculated from the lesion area ratio in accordance with the following equation. [formula]

Cc1ccc(CN(NC(=O)c2cc(C)nnc2Oc2cccc(C3CC3)c2F)S(C)(=O)=O)c(C)c1 [b-26, N′-(3-(3-cyclopropyl-2-fluorophenoxy)-6-methylpyridazine-4-carbonyl)-N-(2,4-dimethylbenzyl)methanesulfonohydrazide]
≥ 75%: inhibition of growth at 25 ppm (Botrytis cinerea [1]) | pest or weed control at 125 ppm (Venturia inaequalis) | inhibition of growth at 25 ppm (Glomerella cingulata) | inhibition of growth at 25 ppm (Colletotrichum acutatum)

COC(=O)N(CCc1ccc(Cl)cc1Cl)NC(=O)c1cc(C)nnc1Oc1cccc(C2CC2)c1F [b-65]
≥ 75%: pest or weed control at 125 ppm [2] | pest or weed control at 125 ppm (Venturia inaequalis) | inhibition of growth at 25 ppm (Glomerella cingulata) | inhibition of growth at 25 ppm (Colletotrichum acutatum)

COC(=O)N(Cc1ccc2ccccc2c1)NC(=O)c1cc(C)nnc1Oc1cccc(C2CC2)c1F [b-71]
≥ 75%: inhibition of growth at 25 ppm (Botrytis cinerea [1]) | pest or weed control at 125 ppm (Venturia inaequalis) | inhibition of growth at 25 ppm (Glomerella cingulata) | inhibition of growth at 25 ppm (Colletotrichum acutatum)

COC(=O)N(Cc1ccc(C)cc1C)NC(=O)c1cc(Cl)nnc1Oc1ccc2c(c1)CCC2 [b-79]
≥ 75%: inhibition of growth at 25 ppm (Botrytis cinerea [1]) | pest or weed control at 125 ppm (Botrytis cinerea [3]) | pest or weed control at 125 ppm (Venturia inaequalis) | inhibition of growth at 25 ppm (Glomerella cingulata) | inhibition of growth at 25 ppm (Colletotrichum acutatum)

COC(=O)N(Cc1ccc(OC)cc1OC)NC(=O)c1cc(C)ncc1Oc1cccc(C2CC2)c1F [b-85]
≥ 75%: inhibition of growth at 25 ppm (Botrytis cinerea [1]) | pest or weed control at 125 ppm [2] | pest or weed control at 25 ppm (Botrytis cinerea [3]) | pest or weed control at 125 ppm (Botrytis cinerea [3]) | pest or weed control at 125 ppm (Venturia inaequalis) | inhibition of growth at 25 ppm (Glomerella cingulata)

COC(=O)N(Cc1ccc(OC)cc1OC)NC(=O)c1nc(C)ncc1Oc1cccc(C2CC2)c1F [b-86]
≥ 75%: inhibition of growth at 25 ppm (Botrytis cinerea [1]) | pest or weed control at 125 ppm [2] | pest or weed control at 25 ppm (Botrytis cinerea [3]) | pest or weed control at 125 ppm (Botrytis cinerea [3]) | pest or weed control at 125 ppm (Venturia inaequalis) | inhibition of growth at 25 ppm (Glomerella cingulata)

COC(=O)N(Cc1ccc(OC)cc1)NC(=O)c1cc(C)nnc1Oc1cccc(C2CC2)c1F [b-100]
≥ 75%: inhibition of growth at 25 ppm (Botrytis cinerea [1]) | pest or weed control at 125 ppm [2] | pest or weed control at 125 ppm (Venturia inaequalis) | inhibition of growth at 25 ppm (Glomerella cingulata) | inhibition of growth at 25 ppm (Colletotrichum acutatum)

COC(=O)N(Cc1ccc(OC)cc1C)NC(=O)c1cc(C)ncc1Oc1cccc(C2CC2)c1F [b-104]
≥ 75%: inhibition of growth at 25 ppm (Botrytis cinerea [1]) | pest or weed control at 125 ppm [2] | pest or weed control at 25 ppm (Botrytis cinerea [3]) | pest or weed control at 125 ppm (Botrytis cinerea [3]) | pest or weed control at 125 ppm (Venturia inaequalis) | inhibition of growth at 25 ppm (Colletotrichum acutatum)

COC(=O)N(Cc1ccc(C)cc1C)NC(=O)c1cc(C)nnc1Oc1cc(C)cc(F)c1 [b-144]
≥ 75%: inhibition of growth at 25 ppm (Botrytis cinerea [1]) | pest or weed control at 125 ppm (Venturia inaequalis) | inhibition of growth at 25 ppm (Glomerella cingulata) | inhibition of growth at 25 ppm (Colletotrichum acutatum)

COC(=O)N(Cc1ccc(-c2ccc(F)cc2)cc1)NC(=O)c1cc(C)nnc1Oc1cccc(C2CC2)c1F [b-164]
≥ 75%: inhibition of growth at 25 ppm (Botrytis cinerea [1]) | pest or weed control at 125 ppm (Venturia inaequalis) | inhibition of growth at 25 ppm (Glomerella cingulata) | inhibition of growth at 25 ppm (Colletotrichum acutatum)

COC(=O)N(Cc1ccc(Oc2ccccc2)cc1)NC(=O)c1cc(C)nnc1Oc1cccc(C2CC2)c1F [b-165]
≥ 75%: inhibition of growth at 25 ppm (Botrytis cinerea [1]) | pest or weed control at 125 ppm (Venturia inaequalis) | inhibition of growth at 25 ppm (Glomerella cingulata) | inhibition of growth at 25 ppm (Colletotrichum acutatum)

COC(=O)N(Cc1ccc(-n2cccn2)cc1)NC(=O)c1cc(C)nnc1Oc1cccc(C2CC2)c1F [b-172]
≥ 75%: inhibition of growth at 25 ppm (Botrytis cinerea [1]) | pest or weed control at 125 ppm (Venturia inaequalis) | inhibition of growth at 25 ppm (Glomerella cingulata) | inhibition of growth at 25 ppm (Colletotrichum acutatum)

COC(=O)N(Cc1ccc(C)cc1C)NC(=O)c1cc(C)nnc1Oc1cccc(F)c1Cl [b-180]
≥ 75%: inhibition of growth at 25 ppm (Botrytis cinerea [1]) | pest or weed control at 125 ppm [2] | pest or weed control at 125 ppm (Venturia inaequalis)

COC(=O)N(Cc1ccc(C)cc1C)NC(=O)c1cc(-n2cccn2)ncc1Oc1cccc(C2CC2)c1F [b-186]
≥ 75%: inhibition of growth at 25 ppm (Botrytis cinerea [1]) | pest or weed control at 25 ppm (Botrytis cinerea [3]) | pest or weed control at 125 ppm (Botrytis cinerea [3]) | pest or weed control at 125 ppm (Venturia inaequalis) | inhibition of growth at 25 ppm (Glomerella cingulata) | inhibition of growth at 25 ppm (Colletotrichum acutatum)
